Converted amounts (≈) assume the structure as drawn.
Tests used:
Test in all cases: Minimum Inhibitory Concentration (MIC) by serial dilution in nutrient agar
Format in all cases: cell-based
E. coli DC 0 = settings: Escherichia coli, DC0, 10^4 colony forming units, overnight at 37° C.
Protocol: (§1) Minimum Inhibitory Concentration (MIC) values of compounds of the invention against E coli DC 0, K pneumoniae T767, and P aeruginosa NCTC 10662 were determined by serial dilution in a nutrient agar (from Oxoid Ltd., Basingstoke, England). The plates were inoculated with 10^4 colony forming units and incubated overnight at 37° C. The MIC values recorded in Table 1 were the lowest concentration of antibiotic to inhibit growth. Comparative data for 7α-formamido-3-(pyridiniummethyl)-7β-(thien-2-yl-acetamido)-ceph-3-em-4-carboxylate (Compound A), disclosed in European Patent Application No. 82303821.1 (Publication Number 0 071 395), are also given.

K. pneumoniae T767 = settings: Klebsiella pneumoniae, 10^4 colony forming units, overnight at 37° C.
Protocol: as §1

P. aeruginosa NCTC 10662 = settings: Pseudomonas aeruginosa, NCTC10662, 10^4 colony forming units, overnight at 37° C.
Protocol: as §1

Row | Structure (SMILES) | MIC (E. coli DC 0) | MIC (K. pneumoniae T767) | MIC (P. aeruginosa NCTC 10662)
1 | O=CN[C@@]1(NC(=O)Cc2cccs2)C(=O)N2C(C(=O)[O-])=C(C[n+]3ccccc3)CS[C@@H]21 [Compound A, 7α-formamido-3-(pyridiniummethyl)-7β-(thien-2-yl-acetamido)-ceph-3-em-4-carboxylate, reference compound] | 25 µg/mL (≈ 54.5 µM) | 25 µg/mL (≈ 54.5 µM) | 50 µg/mL (≈ 109 µM)
2 | CCN1CCN(C(=O)NC(C(=O)NC2(NC=O)C(=O)N3C(C(=O)[O-])=C(C[n+]4cccc5c4CCC5)CSC32)c2ccc(O)c(O)c2)C(=O)C1=O [Example 3, 3-(2,3-Cyclopentenopyridinium)methyl-7β-[D-2-(3,4-dihydroxyphenyl)-2-[(4-ethyl-2,3-dioxopiperazin-1-yl)carbonylamino]acetamido]-7α-formamido-ceph-3-em-4-carboxylate] | 0.12 µg/mL (≈ 0.17 µM) | 0.12 µg/mL (≈ 0.17 µM) | 1 µg/mL (≈ 1.41 µM)
3 | CCN1CCN(C(=O)N[C@@H](C(=O)N[C@]2(NC=O)C(=O)N3C(C(=O)[O-])=C(C[n+]4ccc(C5CC5)cc4)CS[C@@H]32)c2ccccc2)C(=O)C1=O [Example 29, 3-(4-Cyclopropylpyridinium)methyl-7β-[D-2-[(4-ethyl-2,3-dioxopiperazin-1-yl)carbonylamino]-2-phenylacetamido]-7α-formamido-ceph-3-em-4-carboxylate] | 0.5 µg/mL (≈ 0.74 µM) | 1 µg/mL (≈ 1.48 µM) | 8 µg/mL (≈ 11.8 µM)
